The target in assay [1] is T1, HLA-A2 (Homo sapiens, UniProt P04439, D140Y/D185E/D98H/E176V/E277Q/G131W/G231S/I119V/I121R/I166T/I218V/L300P/L318F/N151K/N90K/P208A/P217A/Q86G/Q94H/R138H/R169H/T345S). The format is cell-based. The conditions noted are these: human MDDC, HLA-A2 ligandome; from intensity ratio of native and singly labelled epitope.
Assay [2] deals with Balb/c and C57black/6 mice. Briefly: Murine immunization with PorA and splenocyte proliferation assay. It is filed as in vivo, mouse. The conditions noted are these: splenocytes from Balb/c mice immunized with P1.5-1, 2-2; data not shown.
For another assay, the system named is MB71.5 T cells. Briefly: PorA specific human proliferation assay with MB71.5 T cells. The format is cell-based. The conditions noted are these: FIG. 17A; region 4 18-mer peptides. The procedure:
(§1) For P.69 Pertactin specific human proliferation assays, 10^5 PBMC were incubated in complete medium at 150 µl/well in the absence or presence of the relevant peptide(s), at 1 or 10 μM at 37° C. in a 5% CO2 atmosphere. For PorA specific human proliferation assays, 10^5 PBMC or 2×10^4 MB71.5 T cells were incubated in complete medium at 150 μl/well in the absence or presence of the relevant peptide(s), peptide pool or PorAs rP1.7-2.4, P1.5-2.10, P1.7.16, P1.19.15, or P1.22.14 at the indicated concentrations at 37° C. in a 5% CO2 atmosphere. At day 4, 100-μl volumes were removed for the cytokine determinations. Then 0.5 μCi (18.5 kBq) ^3H-thymidine (Amersham, USA) was added to the culture 18 hours before harvesting the cells. Determination of CPM and calculation of the results were performed as for the proliferation assay of immune splenocytes. Results are expressed as SI±SD from at least triplicate wells. The region 4 specific T cell line MB71.5 was generated by repetitive in vitro restimulation of MB71 PBMC with 0.5 μg/ml rP1.5-2.1 in complete medium.

The target of assay [3] is T1, HLA-A2. The format is cell-based. The conditions noted are these: MV-infected WH cells, HLA-A2 ligands, standard LCMS.
A further assay deals with PBMC. Briefly: P.69 Pertactin specific human proliferation assay (in vitro restimulation of PBMC with synthetic peptides). It is filed as cell-based. The conditions noted are these: PBMC from a panel of healthy adult donors, synthetic standards. The procedure: as §1
We investigated the immunogenicity of the two Bordetella pertussis P.69 Pertactin epitope regions in humans by in vitro restimulation of PBMC from a panel of healthy adult donors with synthetic standards representing the epitopes.

[4] abbreviates: approach A (subtractive analysis).

The source of these data is patent US20110186731A1, “LCMS TECHNOLOGY AND ITS USES” (priority 2008, published 2011).

“Also recorded” adds a separate entry of the source. Like-named read-outs stand apart in the source and are kept apart here.

“VVSEVDIAKAD (listed as Homo sapiens) [SEQ ID NO: 52]”: the “degree of upregulation due to the influenza virus infection” value with HLA-A2 [1] stood at 16.
Consider “PEFSGFSGSVQFVPAQNS [S011-24, synthetic 18-mer, P1.5-2.10 region 4 variant]”, for which the “Response of splenocytes to region 4 peptides” value in assay [2] is listed as “responded”. Besides, the “Proliferation of MB71.5 T cells with autologous PBMC pulsed with synthetic peptides” value with MB71.5 T cells is “proliferated; also recorded: recognizing”.
For the sequence KLWESPQEI [SEQ ID NO: 4], the “Abundance (copies/cell)” value on HLA-A2 [3] (approach B (isotope labelling)) stood at 85 copies/cell.
Take ASTLWYAESNALSKRLG: the “immune recognition observed in donors” value in the assay with PBMC is reported as “at least 2 donors”.
As to LMIDRPYVL [SEQ ID NO: 3], the “Abundance (copies/cell)” value at HLA-A2 [3] (setting [4]) amounted to 150 copies/cell.
In the case of KLWESPQEI [SEQ ID NO: 1], the “Abundance (copies/cell)” value is recorded as >100,000 copies/cell at HLA-A2 [3] (setting [4]) and > 100,000 copies/cell at HLA-A2 [3] (approach A (subtractive analysis), listed as MV-C84-92).
As for “SGSVQFVPAQNSKSAYTP [S011-25, synthetic 18-mer, P1.5-2.10 region 4 variant]”, the “Response of splenocytes to region 4 peptides” value in assay [2] was “responded”. Further, the “Proliferation of MB71.5 T cells with autologous PBMC pulsed with synthetic peptides” value in the assay with MB71.5 T cells is reported as “proliferated; also recorded: recognizing”.
For GLASFILTI [SEQ ID NO: 6], the “Abundance (copies/cell)” value at HLA-A2 [3] (approach B (isotope labelling)) is on record as 150 copies/cell.
For “QLPEATFMV (listed as Measles virus) [SEQ ID NO: 2]”, the “Abundance (copies/cell)” value in the assay with HLA-A2 [3] (setting [4]) was 1,500 copies/cell.
